Data from patent US7622475B2, “EP2 agonists” (Pfizer Inc, priority 2006, dated 2009).

How the values were obtained:
EP2 = EP2 (Homo sapiens, UniProt P43116); experiment: EP2 cAMP EC50 (Table 1); assay type: cell-based
[1] = biological target: T1, prostaglandin E2 type 2 (EP2) receptors (Homo sapiens, UniProt P43116); experiment: Assay for binding to prostaglandin E2 receptors (3H-prostaglandin E2 displacement, membranes of transfected cells); settings: displacement of 3H-prostaglandin E2
T1 construct: expressed in transfected cells
T1 sequence (P43116 whole entry): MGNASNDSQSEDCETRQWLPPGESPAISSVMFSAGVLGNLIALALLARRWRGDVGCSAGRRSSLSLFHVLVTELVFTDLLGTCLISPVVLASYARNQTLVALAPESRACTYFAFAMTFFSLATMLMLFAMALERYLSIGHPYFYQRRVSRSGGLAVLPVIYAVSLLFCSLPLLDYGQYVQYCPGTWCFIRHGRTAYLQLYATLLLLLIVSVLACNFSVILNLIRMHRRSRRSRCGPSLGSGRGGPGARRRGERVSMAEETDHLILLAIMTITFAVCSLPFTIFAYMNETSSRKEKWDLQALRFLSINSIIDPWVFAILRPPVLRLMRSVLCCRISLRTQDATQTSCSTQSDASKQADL
Procedure: All operations are performed at 4° C. […] These are lysed by sonification with a Branson Sonifier (Model #250, Branson Ultrasonics Corporation, Danbury, Conn.) in 2 fifteen second bursts. Unlysed cells and debris are removed by centrifugation at 100×g for 10 min. Membranes are then harvested by centrifugation at 45,000×g for 30 minutes. Pelleted membranes are resuspended to 3-10 mg protein per ml, protein concentration being determined according to the method of Bradford [Bradford, M., Anal. Biochem., 72, 248 (1976)]. Resuspended membranes are then stored frozen at −80° C. until use.
Frozen membranes as prepared are thawed and diluted to 1 mg protein per ml in Buffer A. One volume of membrane preparation is combined with 0.05 volume test compound or buffer and one volume of 3 nM 3H-prostaglandin E2 (#TRK 431, Amersham, Arlington Heights, Ill.) in Buffer A. The mixture (205 μL total volume) is incubated for 1 hour at 25° C. The membranes are then recovered by filtration through type GF/C glass fiber filters (#1 205401, Wallac, Gaithersburg, Md.) using a Tomtec harvester (Model Mach II/96, Tomtec, Orange, Conn.). The membranes with bound 3H-prostaglandin E2 are trapped by the filter, the buffer and unbound 3H-prostaglandin E2 pass through the filter into waste. Each sample is then washed 3 times with 3 ml of [50 mM Tris-HCl (pH 7.4), 10 mM MgCl2, 1 mM EDTA]. The filters are then dried by heating in a microwave oven. To determine the amount of 3H-prostaglandin bound to the membranes, the dried filters are placed into plastic bags with scintillation fluid and counted in a LKB 1205 Betaplate reader (Wallac, Gaithersburg, Md.). IC50s are determined from the concentration of test compound required to displace 50% of the specifically bound 3H-prostaglandin E2.

[2] = system: ocular hypertensive non-human primates; experiment: IOP change after topical application in ocular hypertensive non-human primates; assay type: in vivo; settings: for ΔΔEmax (mm Hg): dosed hypertensive eye vs vehicle; for change in vivo at 0.1 %: Primates, read-out: ΔΔEmax (%)
Procedure: Tables 2 and 3 describe the intraocular pressure (IOP) changes that were seen following topical application of EP2 agonists in ocular hypertensive non-human primates. Typically, compounds in suitable formulations were dosed topically and IOP was measured using tonometry. Changes in IOP between vehicle treatment followed by treatment with EP2 compounds were assessed over time in the dosed hypertensive eye. ΔΔ Emax reflects the difference in IOP from EP2 compound-treated eye over that seen for vehicle-treated eye at the timepoint wherein maximum IOP reduction for compound was seen. The percent ΔΔ Emax was the percentage change in IOP reduction conferred by compound over that for vehicle (set at 100%). Tmax represents the time point at which maximum IOP reduction of compound was observed. […] NS represents not significant. Table 2 compares acids of EP2 compound while Table 3 compares IOP response seen with esters of certain acids. Esters provide better corneal penetration and improved drug exposure in the anterior chamber compared to acids and are therefore dosed at ⅕th the dose for acids […].

glaucomatous dogs = experiment: IOP change after topical instillation in glaucomatous dogs; assay type: in vivo; settings: single 50 μl drop, @ 6 h, drawing 64 […] ([…]), drawing 65 0.1 mg/ml (0.01%)
Procedure: Typically, compounds in suitable formulations were dosed topically and IOP was measured using tonometry. A single 50 μl drop containing either vehicle or drug was instilled in each eye of glaucomatous dogs and IOP was measured at 1, 2, 4, and 6 hours post dose. A baseline IOP measurement was taken prior to topical instillation of vehicle or drug. Changes in IOP between vehicle treatment followed by treatment with EP2 compounds were assessed over time in the glaucomatous dogs. ΔΔ Emax reflects the difference in IOP±standard error from EP2 compound-treated eye over that seen for vehicle-treated eye at the time point wherein maximum IOP reduction for compound was seen. The percent ΔΔ Emax was the percentage change in IOP reduction conferred by compound over that for vehicle (set at 100%).

[3] = Solid form by powder X-ray diffraction; assay type: physicochemical; settings: FIG. 1
Procedure: During analysis, the samples were analyzed from angles of 4 to 40 degrees (θ-2θ) using a scan time of 60 seconds and a scan spot size of 0.5 mm.
The X-Ray diffraction peaks, characterized by peak positions and intensity assignments, have been extracted from the X-ray powder diffractogram of Example 1 and comparative compound 12. One of skill in the art will appreciate that the peak positions (2θ) will show some inter-apparatus variability, typically as much as 0.1 degrees. Accordingly, where peak positions (2θ) are reported, one of skill in the art will recognize that such numbers are intended to encompass such inter-apparatus variability.

[4] = acid EP2 agonists, Conc 0.1 %, topical
[5] = acid EP2 agonists, Conc 0.1 %, topical, vs vehicle (set at 100%)
[6] = acid EP2 agonists, Conc 0.1 %, time point of maximum IOP reduction
[7] = isopropylesters, OHT primates, time point of maximum IOP reduction
[8] = topical, acid EP2 agonists, Conc 0.1 %, topical, vs vehicle (set at 100%)

Chain of EP2 (P43116 whole entry): as above

Row | EC50 (EP2) | IC50 [1] | SMILES | also measured
1 | 6.4 nM | < 10 nM | CC(C)OC(=O)CCc1cccc(CN(Cc2ccc(-c3ncccn3)cc2)S(=O)(=O)c2nccs2)c1 [Example 26] | –
2 | 12 nM | < 10 nM | CC(C)OC(=O)COc1cccc(CN(Cc2ccc(-n3cccn3)cc2)S(=O)(=O)c2ccccn2)c1 [Example 18] | –
3 | 1.48 nM | 10 nM | CC(C)(C)OC(=O)COc1cccc(CN(Cc2ccc(-n3cccn3)cc2)S(=O)(=O)c2cccnc2)c1 [Example C12, t-butyl [3-({[4-(1H-pyrazol-1-yl)benzyl](pyridin-3-yl-sulfonyl)amino}methyl)phenoxy]acetate, reference compound] | ΔΔEmax (%) (glaucomatous dogs): −34% @ 6 h; ΔΔEmax (mmHg) (glaucomatous dogs): −8.0 1.7 mmHg @ 6 h; solid form [3]: gummy material
4 | 5.4 nM | 22 nM | CC(C)OC(=O)COc1cccc(CN(Cc2ccc(-c3ncccn3)cc2)S(=O)(=O)c2cccnc2)c1 [Example 23] | –
5 | 5.9 nM | < 10 nM | CC(C)OC(=O)CCc1cccc(CN(Cc2ccc(-n3cccn3)cc2)S(=O)(=O)c2nccs2)c1 [Example 25] | –
6 | 54 nM | 6.64 nM | CC(C)OC(=O)c1csc(CCCN(CCCc2cccc(Cl)c2)S(C)(=O)=O)n1 [Example 24] | –
7 | 4.9 nM | < 10 nM | CC(C)OC(=O)CCc1cccc(CN(Cc2ccc(-c3ncccn3)cc2)S(=O)(=O)c2ccccn2)c1 [Example 15] | –
8 | 2.2 nM | 2.2 nM | CC(C)OC(=O)Cc1cccc(CN(Cc2ccc(-c3nccs3)cc2)S(=O)(=O)c2cccnc2)c1 [Example 21] | –
9 | 51.5 nM | < 10 nM | CC(C)OC(=O)CCc1cccc(CN(Cc2ccc(-n3cccn3)cc2)S(=O)(=O)c2cccnc2)c1 [Example 20] | –
10 | 4.1 nM | 7.6 nM | CC(C)OC(=O)COc1cccc(CN(Cc2ccc(-c3ccccn3)cc2)S(=O)(=O)c2cccnc2)c1 [Example 19] | –
11 | 0.85 nM | 3 nM | CC(C)OC(=O)COc1cccc(CN(Cc2ccc(-c3nccs3)cc2)S(=O)(=O)c2cccnc2)c1 [Example 16] | –
12 | 7.8 nM | 3.9 nM | CC(C)OC(=O)Cc1cccc(CN(Cc2ccc(-c3ncccn3)cc2)S(=O)(=O)c2cccnc2)c1 [Example 17] | –
13 | 3.3 nM | 15.7 nM | CC(C)OC(=O)CCc1cccc(CN(Cc2ccc(-c3ncccn3)cc2)S(=O)(=O)c2ccc(Cl)cc2)c1 [Example 22] | –

The next lines start with the compound.

Row | SMILES | EC50 (EP2) | IC50 [1] | also measured
14 | O=C(O)CCc1cccc(CN(Cc2ccc(-c3cccnc3)cc2)S(=O)(=O)c2cccnc2)c1 | – | – | ΔΔEmax (mm Hg) [2, 4]: ns; ΔΔEmax (%) [2, 5]: ns
15 | COC(=O)COc1cccc(CN(Cc2ccc(-n3cccn3)cc2)S(=O)(=O)c2cccnc2)c1 [Example 3] | 1.48 nM | 10 nM | –
16 | O=C(O)COc1cccc(CN(Cc2ccc(-n3cccn3)cc2)S(=O)(=O)c2cccnc2)c1 [drawing 60] | – | – | ΔΔEmax (mm Hg) [2, 4]: −2.6 mm Hg; ΔΔEmax (%) [2, 5]: −6%; Tmax [2, 6]: 4 h
17 | CC(C)OC(=O)c1csc(CCCN(CCOc2cc(Cl)cc(Cl)c2)S(C)(=O)=O)c1 | – | – | ΔΔEmax (mmHg) ([2]; isopropylesters, OHT primates, both eyes): −8 (both eyes) mmHg; Tmax [2, 7]: 4 to 6 h
18 | CC(C)OC(=O)COc1cccc(CN(Cc2ccc(-n3cccn3)cc2)S(=O)(=O)c2cccnc2)c1 [Example 1, isopropyl [3-({[4-(1H-pyrazol-1-yl)benzyl](pyridin-3-yl-sulfonyl)amino}methyl)phenoxy]acetate] | 1.48 nM | 10 nM | ΔΔEmax (%) (glaucomatous dogs): −33% @ 6 h; ΔΔEmax (mmHg) (glaucomatous dogs): −7.0 1.2 mmHg @ 6 h; solid form [3]: crystalline form
19 | CCOC(=O)COc1cccc(CN(Cc2ccc(-n3cccn3)cc2)S(=O)(=O)c2cccnc2)c1 [Example 9] | 10 nM | 1.48 nM | –
20 | O=C(O)COc1cccc(CN(Cc2ccc(-c3ncccn3)cc2)S(=O)(=O)c2ccccn2)c1 | – | – | ΔΔEmax (mm Hg) [2, 4]: ns; ΔΔEmax (%) [2, 5]: ns
21 | CS(=O)(=O)N(CCCc1nc(C(=O)O)cs1)CCOc1cc(Cl)cc(Cl)c1 | – | – | change in vivo at 0.1 % [2, 8]: -8%; ΔΔEmax (mm Hg) [2, 4]: −4.3 mm Hg; Tmax [2, 6]: 2 h
22 | CC(C)OC(=O)CCc1cccc(CN(Cc2ccc(-c3cccnc3)cc2)S(=O)(=O)c2ccccc2)c1 [Example 8] | 5.35 nM | < 12.4 nM | –
23 | O=C(O)CCCCCCC1C(=O)CC[C@@H]1CCc1cccc(C(F)(F)F)c1 (some centres unmarked) | – | – | change in vivo at 0.1 % [2, 8]: -9%; ΔΔEmax (mm Hg) [2, 4]: −3.7 mm Hg; Tmax [2, 6]: 6 h
24 | CC(C)OC(=O)CCc1cccc(CN(Cc2ccc(-c3ncccn3)cc2)S(=O)(=O)c2cccnc2)c1 [Example 13] | 3.1 nM | < 10 nM | –
25 | CS(=O)(=O)N(CCCOc1cc(Cl)cc(Cl)c1)CCCc1ccc(C(=O)O)s1 | – | – | change in vivo at 0.1 % [2, 8]: -11%; ΔΔEmax (mm Hg) [2, 4]: −4.4 mm Hg; Tmax [2, 6]: 2 h
26 | CC(C)OC(=O)c1ccc(CCCN(CCCOc2cc(Cl)cc(Cl)c2)S(C)(=O)=O)s1 [drawing 62] | – | – | ΔΔEmax (%) ([2]; isopropylesters, OHT primates, OHT eye): ns; ΔΔEmax (mmHg) ([2]; isopropylesters, OHT primates, OHT eye, 0.1 mg/ml topical): ns; Tmax (h) [2, 7]: ns
27 | O=C(O)COc1cccc(CN(Cc2ccc(-n3cccn3)cc2)S(=O)(=O)c2cccnc2)c1 [drawing 52] | – | – | ΔΔEmax (mm Hg) [2, 4]: −7.0 mm Hg; ΔΔEmax (%) [2, 5]: −21%; Tmax [2, 6]: 4 h
28 | Cn1cnc(S(=O)(=O)N(Cc2ccc(-c3nccs3)cc2)Cc2cccc(OCC(=O)O)c2)c1 | – | – | ΔΔEmax (mm Hg) [2, 4]: ns; ΔΔEmax (%) [2, 5]: ns
29 | CC(C)(C)OC(=O)CCc1cccc(CN(Cc2ccc(-c3cccnc3)cc2)S(=O)(=O)c2ccccc2)c1 [Example 4] | 5.35 nM | < 12.4 nM | –
30 | CC(C)(C)OC(=O)c1ccc(CCCN(CCCOc2cc(Cl)cc(Cl)c2)S(C)(=O)=O)s1 [Example 10] | 8.15 nM | 3.22 nM | –
31 | CC(C)OC(=O)c1ccc(CCCN(CCOc2cc(Cl)cc(Cl)c2)S(C)(=O)=O)s1 [Example 5] | 4.8 nM | 4.42 nM | –
32 | CC(C)OC(=O)CCc1cccc(CN(Cc2ccc(-c3ncccn3)cc2)S(=O)(=O)c2ccccc2)c1 [Example 14] | 3.1 nM | < 10 nM | –
33 | O=C(O)CCc1cccc(CN(Cc2ccc(-c3cccnc3)cc2)S(=O)(=O)c2ccccc2)c1 | – | – | change in vivo at 0.1 % [2, 8]: -10%; ΔΔEmax (mm Hg) [2, 4]: −3.0 mm Hg; Tmax [2, 6]: 4 h
34 | CC(C)OC(=O)c1csc(CCCN(CCOc2cc(Cl)cc(Cl)c2)S(C)(=O)=O)n1 [Example 7] | 18 nM | 5.3 nM | –
35 | CC(C)OC(=O)COc1cccc(CN(Cc2ccc(-c3nccs3)cc2)S(=O)(=O)c2cn(C)cn2)c1 [Example 12] | 12 nM | 26 nM | –
36 | CC(C)OC(=O)CCCCCCN(CCCc1cc(Cl)cc(Cl)c1)S(C)(=O)=O [Example 6] | 7 nM | 6.6 nM | –
37 | CC(C)OC(=O)c1ccc(CCCN(CCCOc2cc(Cl)cc(Cl)c2)S(C)(=O)=O)s1 [Example 2] | 8.15 nM | 3.22 nM | –
38 | O=C(O)CCc1cccc(CN(Cc2ccc(-c3cncnc3)cc2)S(=O)(=O)c2ccccn2)c1 | – | – | ΔΔEmax (mm Hg) [2, 4]: ns; ΔΔEmax (%) [2, 5]: ns
